Assay: Clinical safety of gene transfer and GCV treatment (adverse effects, routine laboratory measurements)
Type: in vivo, human
Conditions: GCV 5 mg/kg/d intravenously, 14 days; only one patient, without symptoms
Protocol: All patients underwent craniotomy and tumour resection. The resection was as radical as possible under the microscope. The diagnosis of malignant glioma was confirmed by frozen sections at the time of the operation. After tumour resection, HSVtk retrovirus packaging cells (10^9 cells/10 ml) or adenoviruses (3×10^10 pfu/10 ml) were injected into the wall of the tumour cavity in 0.1-0.3 ml quantities, 10 mm deep, with 30-70 injections/patient. GCV treatment (5 mg/kg/d) was delivered intravenously through the subclavian vein twice a day for 14 days. The medication started 14 days or 5 days after the tumour resection and gene transfer in retrovirus or adenovirus patients, respectively. β-galactosidase gene was transferred to seven control group patients via a catheter which was stereotactically inserted into the tumour. The catheter was left in place until the tumour was resected in craniotomy. […]
Blood and urine samples were analyzed using routine methods before gene transfer, on the first postoperative day and weekly during hospitalization except for leucocyte differential count which was measured every second day during GCV medication. Anti-virus antibodies were measured before and two weeks after the gene transfer. […]

## Nc1nc(O)c2ncn(COC(CO)CO)c2n1 [GCV, ganciclovir]
  leukopenia during GCV treatment: mild and reversible leukopenia
